From patent publication US5234947A, “Potassium channel activating compounds and methods of use thereof” (New York University, priority 1991, dated 1993)
“Also recorded” adds a separate entry of the source.

What was measured:
[1] = molecular target: T1, large 200-220 pS channel (large Ca++-dependent K+ channel) (Rattus norvegicus, UniProt Q62976); test: lipid bilayer technique, rat brain membranes fused with a bilayer on a patch-clamp pipette; assay type: biochemical
T1 construct: single-channel recording
Method: Isolated avena pyrone was studied for its action against ionic channels in cell membranes using the lipid bilayer technique. Membranes from rat brain were fused with a lipid bilayer formed across the opening of a patch-clamp pipette. Electrical activity was monitored using an Axon Instruments Axopatch amplifier using 100 mM symmetrical KCl solutions. In the presence of elevated levels of calcium, at least three types of potassium channel can be determined: a small 25-50 pS channel, a 90-120 pS channel, and a large 200-220 pS channel. In the absence of calcium in the bathing solutions, openings of the large 200 pS channel are rarely seen.
FIGS. 1 and 2 show the exposure of the channels to potassium in the presence of avena pyrone. In the two tracings in FIG. 1, the membrane potential was held at -25 mV. Under these conditions, the mid-sized K^+ channel is very active but the large channel is rarely open during the approximately 1.5 seconds shown. […] The effect is most pronounced under low calcium conditions.

craving for a cigarette = assay type: in vivo; conditions: cigarette smoking
From the text: The interference with the effects of withdrawal symptoms from addictive substances of the subject compounds is also consistent with potassium channel activation. […] As one gets a craving for a cigarette, there is a perception of muscular tension. The effects of potassium channel activators are to lower the blood pressure, relax the muscles and make breathing easier, all of which counteracts the feeling of craving one experiences upon withdrawal from an addictive substance.

potassium channel = potassium channel activation (method not described); assay type: biochemical

T1 sequence (Q62976 whole entry, the tested form may be a part): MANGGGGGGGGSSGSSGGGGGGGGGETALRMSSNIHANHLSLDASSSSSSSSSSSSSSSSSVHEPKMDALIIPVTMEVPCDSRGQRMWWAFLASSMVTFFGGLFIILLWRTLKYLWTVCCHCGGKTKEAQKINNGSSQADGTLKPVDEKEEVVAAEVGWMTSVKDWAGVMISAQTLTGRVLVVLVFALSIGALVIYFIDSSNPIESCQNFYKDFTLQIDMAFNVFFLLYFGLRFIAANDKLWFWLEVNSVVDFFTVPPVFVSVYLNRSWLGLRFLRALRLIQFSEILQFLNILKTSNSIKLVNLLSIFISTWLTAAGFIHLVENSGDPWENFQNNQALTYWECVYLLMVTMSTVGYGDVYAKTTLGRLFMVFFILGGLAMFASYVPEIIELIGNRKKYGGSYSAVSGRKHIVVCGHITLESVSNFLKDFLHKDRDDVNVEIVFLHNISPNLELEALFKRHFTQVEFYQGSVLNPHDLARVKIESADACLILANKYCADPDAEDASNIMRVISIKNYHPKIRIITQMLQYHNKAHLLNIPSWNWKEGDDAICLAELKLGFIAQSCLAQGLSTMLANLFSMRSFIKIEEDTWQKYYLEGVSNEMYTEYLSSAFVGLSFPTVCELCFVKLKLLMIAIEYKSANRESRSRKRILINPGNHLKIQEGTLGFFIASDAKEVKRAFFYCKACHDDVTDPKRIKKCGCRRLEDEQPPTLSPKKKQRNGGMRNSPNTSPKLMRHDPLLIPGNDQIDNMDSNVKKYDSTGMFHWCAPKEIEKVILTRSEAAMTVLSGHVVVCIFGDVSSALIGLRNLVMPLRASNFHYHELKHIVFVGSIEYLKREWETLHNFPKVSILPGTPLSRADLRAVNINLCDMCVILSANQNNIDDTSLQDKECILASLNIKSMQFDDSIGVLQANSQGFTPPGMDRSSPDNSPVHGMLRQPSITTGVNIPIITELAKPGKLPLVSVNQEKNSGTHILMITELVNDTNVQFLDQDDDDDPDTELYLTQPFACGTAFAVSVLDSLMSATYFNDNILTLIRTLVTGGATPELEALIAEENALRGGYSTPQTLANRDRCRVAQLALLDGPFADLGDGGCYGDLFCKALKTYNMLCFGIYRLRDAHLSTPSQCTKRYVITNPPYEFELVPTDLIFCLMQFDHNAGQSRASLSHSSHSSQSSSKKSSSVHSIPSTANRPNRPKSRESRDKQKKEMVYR

SMILES	activation of the large K+ channel ([1]; absence of calcium / low calcium, 100 mM symmetrical KCl, membrane potential -25 mV)	open times of the large channel ([1]; avena pyrone added to the bath, -25 mV)	open probability of the large channel ([1]; avena pyrone added to the bathing solution)	activation of the large channel ([1]; conditions of greater calcium concentration)	craving for a cigarette (craving for a cigarette)	potassium channel activation (potassium channel)
CC1CCCC(=O)O1 (stereo not drawn) [avena pyrone, 2H-6-methyltetrahydropyran-2-one]	activation of the large K^+ channel is seen; also recorded: the large channel was activated	very long open times; also recorded: increased from a few milliseconds to times approaching seconds	increased open probability; also recorded: substantially increasing the open probability	still capable of activation of the channel but to a lesser degree	reduce the craving for a cigarette	
COC1=CC(=O)O[C@@H](/C=C/c2ccccc2)C1 [kawain]						potassium channel activating substance
